Experimental data published in patent US10428018B2, “ROR gamma (RORy) modulators” (LEAD PHARMA HOLDING B.V., priority 2015, dated 2019).

The molecules below were run on IL-17A production in anti-CD3/anti-CD28 stimulated peripheral blood mononuclear cells (PBMCs) (assay: Peripheral blood mononuclear cell (PBMC) IL-17 assay). Details: Homo sapiens, 120 h, read-out:.
Method: This assay is designed to measure the levels of IL-17A secreted from anti-CD3/anti-CD28 stimulated PBMCs with the aim of measuring RORγ mediated inhibition of IL-17A production.
The assay medium consists of 90% RPMI 1640 (Lonza), 10% heat inactivated fetal bovin serum (FBS, Lonza) and 100 U/mL penicillin/streptomycin solution.
Anti-CD3 antibody (BD Pharmingen) was diluted to 10 μg/ml in PBS (Lonza). 30 μL of 10 μg/ml anti-CD3 solution was added to the inner 60 wells, excluding any negative control wells, of a 96-well cell culture treated U-bottom plate (Greiner). Plates were incubated overnight (16-24 hours) at 37° C. and 5% CO2.
Peripheral blood mononuclear cells were separated from buffy coats (Sanquin) using Ficoll-Paque PREMIUM separation medium (GE Healthcare Life Sciences) according to manufacturer's protocol and re-suspended in assay medium at 37° C.
Test compounds were diluted, starting from a 10 mM dimethylsulfoxide (DMSO) stock solution, to serial dilutions in DMSO at 200× the final test concentration. Subsequently, these solutions were diluted in two dilution steps in assay medium to 10× the final test concentration. The DMSO concentration of the 10× test compound solution was 5%.
Anti-CD28 antibody (BD Pharmingen) was diluted to 20 μg/mL in PBS.
For compound screening, the anti-CD3 coated plates were washed three times with PBS, the wells were subsequently aspirated using vacuum. To each screening well 80 μL of the PBMC suspension, 10 μL of the anti-CD28 solution and 10 μL of the 1 Ox test compound solution was added, resulting in the final test concentration with 0.5% DMSO. All outer wells were filled with assay medium to prevent evaporation. Plates were incubated for 5 days at 37° C. and 5% CO2.
After incubation the plates were spun down at 1500 rpm for 4 minutes and the supernatant was collected. Subsequently, the IL-17A levels in the supernatants was determined using an IL-17 ELISA kit (human IL-17 DuoSet, R&D systems) according to manufacturer's protocol.
The half maximum inhibitory concentration (IC50) values for the test compounds were calculated from the IL-17A signal using GraphPad Prism software (GraphPad Software).

SMILES	IC50 [nM]
CCN(C(=O)c1ccc(NC(=O)Cc2ccc(S(=O)(=O)CC)cc2)cc1)c1nc(C)c(C)s1 [Example 13, N-(4-methyl-5-methyl-1,3-thiazol-2-yl)-4-{2-[4-(ethanesulfonyl)phenyl]acetamido}-N-ethylbenzamide]	≤ 100

Same assay, conditions: Homo sapiens, 120 h, read-out: mean pIC50, inhibition of IL-17A secretion (ELISA), human PBMCs, anti-CD3/anti-CD28 stimulated, 5 days (converted)

SMILES	IC50 [nM]
CCS(=O)(=O)c1ccc(CC(=O)Nc2ccc(C(=O)N(c3ccc(C)cc3)C(C)(C)C3CCCO3)cc2)cc1 (centres unmarked) [Example 17, 4-{2-[4-(ethanesulfonyl)phenyl]acetamido}-N-(4-methylphenyl)-N-[2-(oxolan-2-yl)propan-2-yl]benzamide]	≤ 100
CCS(=O)(=O)c1ccc(CC(=O)Nc2ccc(C(=O)N(c3ccccc3)C3CC(F)(F)C3)cc2)cc1 [Example 21, N-(3,3-difluorocyclobutyl)-4-{2-[4-(ethanesulfonyl)phenyl]acetamido}-N-phenylbenzamide]	≤ 100
CCS(=O)(=O)c1ccc(CC(=O)Nc2ccc(C(=O)N(c3ccccc3)C(C)(C)C)cc2)cn1 [Example 44, N-tert-butyl-4-{2-[6-(ethanesulfonyl)pyridin-3-yl]acetamido}-N-phenylbenzamide]	≤ 100
CCN(C(=O)c1ccc(NC(=O)Cc2ccc(S(=O)(=O)CC)cc2)cc1)c1cc(C)nn1C [Example 2, N-(1,3-dimethyl-1H-pyrazol-5-yl)-4-{2-[4-(ethanesulfonyl)phenyl]acetamido}-N-ethylbenzamide]	≤ 100
CCCN(C(=O)c1ccc(NC(=O)Cc2ccc(S(=O)(=O)CC)cc2)cc1)c1cc(C)on1 [Example 5, 4-{2-[4-(ethanesulfonyl)phenyl]acetamido}-N-(5-methyl-1,2-oxazol-3-yl)-N-propylbenzamide]	≤ 100
CCCN(C(=O)c1ccc(NC(=O)Cc2ccc(S(=O)(=O)CC)cc2)cc1)c1cc(C)nn1C [Example 6, N-(1,3-dimethyl-1H-pyrazol-5-yl)-4-{2-[4-(ethanesulfonyl)phenyl]acetamido}-N-propylbenzamide]	≤ 100
CCS(=O)(=O)c1ccc(CC(=O)Nc2ccc(C(=O)N(c3ccccc3)C(C)(C)C3CCCO3)cc2)cc1 (centres unmarked) [Example 18, 4-{2-[4-(ethanesulfonyl)phenyl]acetamido}-N-[2-(oxolan-2-yl)propan-2-yl]-N-phenylbenzamide]	≤ 100

What follows are molecules tested against T1, RORγ (Homo sapiens, UniProt P51449) (assay: RORγ GAL4 reporter gene assay (luciferase readout, 293FT cells)). Details: inhibition of RORγ (GAL4-RORγ-LBD) luciferase signal in transfected 293FT cells, overnight incubation; read-out: mean pIC50 (converted).
T1 construct: expressed in transfected cells; host or cells: 293FT cells (Invitrogen), expression vector pFN26A (Promega)
T1 sequence (P51449 269-508 limits assumed): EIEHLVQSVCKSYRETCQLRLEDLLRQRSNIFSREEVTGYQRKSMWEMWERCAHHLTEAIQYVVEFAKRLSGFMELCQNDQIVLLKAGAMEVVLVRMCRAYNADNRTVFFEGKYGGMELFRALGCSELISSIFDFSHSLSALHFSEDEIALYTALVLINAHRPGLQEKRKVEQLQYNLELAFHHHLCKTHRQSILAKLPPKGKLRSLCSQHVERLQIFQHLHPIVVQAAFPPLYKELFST
Type: cell-based
Method: Example inhibitors 1-45 were tested for their ability to inhibit RORγ activity in a RORγ GAL4 reporter gene assay.
The RORγ ligand-binding domain (LBD) was fused to the yeast GAL4 DNA binding domain (DBD) and placed under the control of the human cytomegalovirus (CMV) immediate early promoter, using expression vector pFN26A (Promega) and standard recombinant DNA cloning methods.
To monitor the inhibitory effect of compounds on RORγ, a transcriptional reporter construct was used. The pGL4.35 vector (Promega) contains nine copies of the GAL4 Upstream Activator Sequence (UAS). This sequence drives the transcription of the luciferase reporter gene luc2P in response to binding of a fusion protein containing the GAL4 DNA binding domain, as for example expressed by the GAL4-RORγ-LBD and GAL4-VP16 expression vectors described above.
The day after transfection, cells were plated into 96 well plates, test compound was added and the plates were incubated overnight. Subsequently, the firefly luciferase activity was quantified using luciferase detection reagent and luminescence readout.
1500 μL of this reagent mixture was added to 5 μg of GAL4 fusion protein expression vector and 5 μg of the transcriptional reporter construct, and incubated at RT for 20 minutes.
Subsequently, the cells were washed with Phosphate Buffered Saline (PBS) (Lonza), after which the PBS was removed. To dissociate the cells, 1 ml of TrypLE Express (Invitrogen) was added to the flask, followed by incubation at RT until the cells visually started to detach. Cells were collected in 5 mL of assay medium (DMEM culture medium (Lonza), 10% dialyzed FBS (Invitrogen) and Pen/Strep (Lonza)) to achieve a single cell suspension. 10×10^6 cells were spun down and re-suspended in 10 mL of assay medium.
For compound screening, the cells were harvested (as described above) and counted. […] 80 μL of cell suspension (60,000 cells) was plated per well into a white, flat bottom, tissue culture treated, 96 well screening plates (Greiner).
Subsequently, these solutions were diluted to 5× the final test concentration in two 10-fold-dilution steps in assay medium. The final DMSO concentration of the 5× test compound solution was 1%. 20 μL of the 5× test compound solution was added to each test well of the 96 well plate previously plated with 80 μl cell suspension, resulting in the final test concentration with 0.2% DMSO.
For the luciferase readout, the luciferase reagent (Britelite Plus, Perkin Elmer) was brought to RT. To each test well of the screening plates, 100 μL of 2.5-fold diluted Britelite Plus reagent was added, followed by incubation at RT for 10 minutes. The luciferase luminescence signal was measured using a Wallac Victor Microplate Reader (Perkin Elmer).

SMILES	IC50 [nM]
CCS(=O)(=O)c1ccc(CC(=O)Nc2ccc(C(=O)N(C)c3ccccc3)cc2)cc1 [Example 30, 4-{2-[4-(ethanesulfonyl)phenyl]acetamido}-N-methyl-N-phenylbenzamide]	≤ 100
CCS(=O)(=O)c1ccc(CC(=O)Nc2ccc(C(=O)N(C)Cc3ccccc3)cc2)cc1 [Example 26, N-benzyl-4-{2-[4-(ethanesulfonyl)phenyl]acetamido}-N-methylbenzamide]	≤ 1000
CCN(C(=O)c1ccc(NC(=O)Cc2ccc(S(=O)(=O)CC)cc2)cc1)c1cccnc1 [Example 32, 4-{2-[4-(ethanesulfonyl)phenyl]acetamido}-N-ethyl-N-(pyridin-3-yl)benzamide]	≤ 1000
CCS(=O)(=O)c1ccc(CC(=O)Nc2ccc(C(=O)N(c3ccccc3)C(C)(C)C)cc2)cn1 [Example 44, N-tert-butyl-4-{2-[6-(ethanesulfonyl)pyridin-3-yl]acetamido}-N-phenylbenzamide]	≤ 100
CCS(=O)(=O)c1ccc(CC(=O)Nc2ccc(C(=O)N(c3ccc(C)cc3)C(C)(C)CO)cc2)cc1 [Example 42, 4-{2-[4-(ethanesulfonyl)phenyl]acetamido}-N-(1-hydroxy-2-methylpropan-2-yl)-N-(4-methylphenyl)benzamide]	≤ 100
CCS(=O)(=O)c1ccc(CC(=O)Nc2ccc(C(=O)N3CCCC3c3ccccc3)cc2)cc1 (centres unmarked) [Example 29, 2-[4-(ethanesulfonyl)phenyl]-N-[4-(2-phenylpyrrolidine-1-carbonyl)phenyl]acetamide]	≤ 1000
CCN(C(=O)c1ccc(NC(=O)Cc2ccc(S(=O)(=O)CC)nc2)cc1F)c1ccccc1 [Example 43, 4-{2-[6-(ethanesulfonyl)pyridin-3-yl]acetamido}-N-ethyl-2-fluoro-N-phenylbenzamide]	≤ 1000
CCN(C(=O)c1ccc(NC(=O)Cc2ccc(S(=O)(=O)CC)cc2)nc1)c1ccccc1 [Example 24, 6-{2-[4-(ethanesulfonyl)phenyl]acetamido}-N-ethyl-N-phenylpyridine-3-carboxamide]	≤ 1000
CCCN(Cc1ccccc1)C(=O)c1ccc(NC(=O)Cc2ccc(S(=O)(=O)CC)cc2)cc1 [Example 25, N-benzyl-4-{2-[4-(ethanesulfonyl)phenyl]acetamido}-N-propylbenzamide]	≤ 100
CCN(C(=O)c1ccc(NC(=O)Cc2ccc(S(=O)(=O)CC)cc2)cc1)c1ccccc1 [Example 34, 4-{2-[4-(ethanesulfonyl)phenyl]acetamido}-N-ethyl-N-phenylbenzamide]	≤ 10
CCCN(C(=O)c1ccc(NC(=O)Cc2ccc(S(=O)(=O)CC)cc2)cc1)c1cccnc1 [Example 31, 4-{2-[4-(ethanesulfonyl)phenyl]acetamido}-N-propyl-N-(pyridin-3-yl)benzamide]	≤ 100
CCS(=O)(=O)c1ccc(CC(=O)Nc2ccc(C(=O)N(c3ccccc3)C(C)(C)C3CCCO3)cc2)cc1 (centres unmarked) [Example 18, 4-{2-[4-(ethanesulfonyl)phenyl]acetamido}-N-[2-(oxolan-2-yl)propan-2-yl]-N-phenylbenzamide]	≤ 10
CCS(=O)(=O)c1ccc(CC(=O)Nc2ccc(C(=O)N3CCCc4ccccc43)cc2)cc1 [Example 28, 2-[4-(ethanesulfonyl)phenyl]-N-[4-(1,2,3,4-tetrahydroquinoline-1-carbonyl)phenyl]acetamide]	≤ 100
CCS(=O)(=O)c1ccc(CC(=O)Nc2ccc(C(=O)N(Cc3ccccc3)Cc3ccccc3)cc2)cc1 [Example 38, N,N-dibenzyl-4-{2-[4-(ethanesulfonyl)phenyl]acetamido}benzamide]	≤ 100

The remaining lines, values ahead:

IC50 [nM]	SMILES
≤ 100	CCS(=O)(=O)c1ccc(CC(=O)Nc2ccc(C(=O)N3CCCCC3c3ccccc3)cc2)cc1 (centres unmarked) [Example 33, 2-[4-(ethanesulfonyl)phenyl]-N-[4-(2-phenylpiperidine-1-carbonyl)phenyl]acetamide]
≤ 1000	CCS(=O)(=O)c1ccc(CC(=O)Nc2ccc(C(=O)N(c3ccccn3)C3CCC3)cc2)cc1 [Example 41, N-cyclobutyl-4-{2-[4-(ethanesulfonyl)phenyl]acetamido}-N-(pyridin-2-yl)benzamide]
≤ 1000	CCCN(CC1CC1)C(=O)c1ccc(NC(=O)Cc2ccc(S(=O)(=O)CC)cc2)cc1 [Example 27, N-(cyclopropylmethyl)-4-{2-[4-(ethanesulfonyl)phenyl]acetamido}-N-propylbenzamide]
≤ 1000	CCS(=O)(=O)c1ccc(CC(=O)Nc2ccc(C(=O)N(c3ccccn3)C3CC3)cc2)cc1 [Example 40, N-cyclopropyl-4-{2-[4-(ethanesulfonyl)phenyl]acetamido}-N-(pyridin-2-yl)benzamide]
≤ 100	CCN(C(=O)c1ccc(NC(=O)Cc2ccc(S(=O)(=O)CC)cc2)cc1)c1cc(C)no1 [Example 3, 4-{2-[4-(ethanesulfonyl)phenyl]acetamido}-N-ethyl-N-(3-methyl-1,2-oxazol-5-yl)benzamide]
≤ 1000	CCS(=O)(=O)c1ccc(CC(=O)Nc2ccc(C(=O)N(C)c3cc(C)on3)cc2)cc1 [Example 1, 4-{2-[4-(ethanesulfonyl)phenyl]acetamido}-N-methyl-N-(5-methyl-1,2-oxazol-3-yl)benzamide]
≤ 1000	CCS(=O)(=O)c1ccc(CC(=O)Nc2ccc(C(=O)N(C)c3ccccn3)cc2)cc1 [Example 23, 4-{2-[4-(ethanesulfonyl)phenyl]acetamido}-N-methyl-N-(pyridin-2-yl)benzamide]
≤ 1000	CCS(=O)(=O)c1ccc(CC(=O)Nc2ccc(C(=O)N(C)Cc3ccco3)cc2)cc1 [Example 37, 4-{2-[4-(ethanesulfonyl)phenyl]acetamido}-N-(furan-2-ylmethyl)-N-methylbenzamide]
≤ 100	CCN(C(=O)c1ccc(NC(=O)Cc2ccc(S(=O)(=O)CC)cc2)cc1)c1cc(C)nn1C [Example 2, N-(1,3-dimethyl-1H-pyrazol-5-yl)-4-{2-[4-(ethanesulfonyl)phenyl]acetamido}-N-ethylbenzamide]
≤ 1000	CCS(=O)(=O)c1ccc(CC(=O)Nc2ccc(C(=O)N(C3CCC3)C3CCC3)cc2)cc1 [Example 35, N, N-dicyclobutyl-4-{2-[4-(ethanesulfonyl)phenyl]acetamido}benzamide]
